target: Epidermal growth factor receptor (Homo sapiens, UniProt P00533); test: not given; format: ADME, cell-based, Sf21; settings: not given
Sequence (P00533 whole entry): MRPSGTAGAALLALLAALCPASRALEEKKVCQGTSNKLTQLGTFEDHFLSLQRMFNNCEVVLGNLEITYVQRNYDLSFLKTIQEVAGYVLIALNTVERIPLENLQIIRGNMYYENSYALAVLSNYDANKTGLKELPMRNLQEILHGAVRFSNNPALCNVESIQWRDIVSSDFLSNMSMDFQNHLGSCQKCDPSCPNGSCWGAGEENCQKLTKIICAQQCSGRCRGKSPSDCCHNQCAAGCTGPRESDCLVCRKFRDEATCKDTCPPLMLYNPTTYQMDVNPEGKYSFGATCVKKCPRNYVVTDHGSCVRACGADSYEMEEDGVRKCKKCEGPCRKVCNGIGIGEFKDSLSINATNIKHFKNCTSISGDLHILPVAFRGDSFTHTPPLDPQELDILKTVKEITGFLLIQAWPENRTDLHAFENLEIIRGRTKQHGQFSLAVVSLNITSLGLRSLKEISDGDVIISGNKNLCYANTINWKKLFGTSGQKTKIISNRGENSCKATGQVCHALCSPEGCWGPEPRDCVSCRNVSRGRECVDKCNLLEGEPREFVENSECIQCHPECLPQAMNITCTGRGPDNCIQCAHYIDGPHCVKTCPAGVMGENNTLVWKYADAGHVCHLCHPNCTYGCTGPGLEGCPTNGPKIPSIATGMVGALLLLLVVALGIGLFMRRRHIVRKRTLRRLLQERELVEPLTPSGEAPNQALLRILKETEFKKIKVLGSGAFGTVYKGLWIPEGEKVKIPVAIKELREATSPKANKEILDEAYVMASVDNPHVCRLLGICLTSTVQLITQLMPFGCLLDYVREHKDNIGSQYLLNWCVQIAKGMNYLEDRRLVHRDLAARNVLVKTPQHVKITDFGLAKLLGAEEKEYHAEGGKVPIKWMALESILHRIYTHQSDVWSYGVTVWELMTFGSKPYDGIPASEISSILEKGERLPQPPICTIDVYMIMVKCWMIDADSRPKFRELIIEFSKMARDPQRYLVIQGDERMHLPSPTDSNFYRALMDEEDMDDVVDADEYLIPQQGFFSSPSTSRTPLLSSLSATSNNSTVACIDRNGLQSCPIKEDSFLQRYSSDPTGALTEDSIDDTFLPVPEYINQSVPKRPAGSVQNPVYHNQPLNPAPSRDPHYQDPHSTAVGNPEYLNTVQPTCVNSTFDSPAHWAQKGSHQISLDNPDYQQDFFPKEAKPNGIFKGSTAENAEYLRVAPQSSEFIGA

SMILES	IC50 [nM]
C=CC(=O)Nc1cc2c(Nc3ccc(F)c(Cl)c3)ncnc2cc1OCc1cn(CCCO)nn1	12
C=CC(=O)Nc1cc2c(Nc3ccc(F)c(Cl)c3)ncnc2cc1OCc1cn(Cc2ccccc2F)nn1	65

target: Epidermal growth factor receptor (Homo sapiens, UniProt P00533, L858R/T790M); test: biochemical; format: cell-based, Sf21; settings: not given
Sequence (P00533 25-1210 T790M/L858R limits assumed): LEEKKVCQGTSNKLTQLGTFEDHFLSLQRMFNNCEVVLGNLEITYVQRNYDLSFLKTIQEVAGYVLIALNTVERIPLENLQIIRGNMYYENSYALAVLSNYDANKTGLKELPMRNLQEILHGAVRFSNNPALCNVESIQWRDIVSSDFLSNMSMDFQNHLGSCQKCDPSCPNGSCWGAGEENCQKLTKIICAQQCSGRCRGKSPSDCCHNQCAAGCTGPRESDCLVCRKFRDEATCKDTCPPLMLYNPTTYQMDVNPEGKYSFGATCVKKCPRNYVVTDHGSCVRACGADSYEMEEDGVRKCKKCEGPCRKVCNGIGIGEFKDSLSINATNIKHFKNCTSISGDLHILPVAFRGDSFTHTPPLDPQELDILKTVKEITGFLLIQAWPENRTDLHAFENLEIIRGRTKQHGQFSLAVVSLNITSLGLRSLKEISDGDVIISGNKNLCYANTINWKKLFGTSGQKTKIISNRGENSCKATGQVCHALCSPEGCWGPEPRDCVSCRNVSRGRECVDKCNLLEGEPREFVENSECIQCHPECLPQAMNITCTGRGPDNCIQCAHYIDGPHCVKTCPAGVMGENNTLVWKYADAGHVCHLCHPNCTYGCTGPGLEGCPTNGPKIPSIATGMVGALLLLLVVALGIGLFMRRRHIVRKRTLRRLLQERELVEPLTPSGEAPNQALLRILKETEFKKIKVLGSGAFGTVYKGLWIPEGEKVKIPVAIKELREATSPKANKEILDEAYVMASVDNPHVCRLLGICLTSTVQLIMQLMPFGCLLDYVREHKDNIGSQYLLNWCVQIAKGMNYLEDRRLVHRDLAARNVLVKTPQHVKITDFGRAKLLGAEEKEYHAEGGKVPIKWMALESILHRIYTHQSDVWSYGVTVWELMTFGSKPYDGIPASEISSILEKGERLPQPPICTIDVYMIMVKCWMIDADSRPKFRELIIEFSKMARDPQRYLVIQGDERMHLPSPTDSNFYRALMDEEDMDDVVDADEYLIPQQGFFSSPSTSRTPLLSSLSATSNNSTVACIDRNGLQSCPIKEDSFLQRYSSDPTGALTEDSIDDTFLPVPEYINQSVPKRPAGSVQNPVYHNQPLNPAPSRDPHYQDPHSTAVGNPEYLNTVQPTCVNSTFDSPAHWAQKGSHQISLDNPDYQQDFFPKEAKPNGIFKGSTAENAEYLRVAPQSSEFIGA

SMILES	IC50 [nM]
C=CC(=O)Nc1cc2c(Nc3ccc(F)c(Cl)c3)ncnc2cc1OCc1cn(CCCO)nn1	4
C=CC(=O)Nc1cc2c(Nc3ccc(F)c(Cl)c3)ncnc2cc1OCc1cn(Cc2ccccc2F)nn1	12

target: Receptor tyrosine-protein kinase erbB-2 (Homo sapiens, UniProt P04626); test: Inhibition of human C-terminal His6-tagged ERBB2 (676 to end residues) expressed in baculovirus infected sf21 cells using poly(Glu, Tyr) 4:1 as substrate; settings: not given
Sequence (P04626 whole entry): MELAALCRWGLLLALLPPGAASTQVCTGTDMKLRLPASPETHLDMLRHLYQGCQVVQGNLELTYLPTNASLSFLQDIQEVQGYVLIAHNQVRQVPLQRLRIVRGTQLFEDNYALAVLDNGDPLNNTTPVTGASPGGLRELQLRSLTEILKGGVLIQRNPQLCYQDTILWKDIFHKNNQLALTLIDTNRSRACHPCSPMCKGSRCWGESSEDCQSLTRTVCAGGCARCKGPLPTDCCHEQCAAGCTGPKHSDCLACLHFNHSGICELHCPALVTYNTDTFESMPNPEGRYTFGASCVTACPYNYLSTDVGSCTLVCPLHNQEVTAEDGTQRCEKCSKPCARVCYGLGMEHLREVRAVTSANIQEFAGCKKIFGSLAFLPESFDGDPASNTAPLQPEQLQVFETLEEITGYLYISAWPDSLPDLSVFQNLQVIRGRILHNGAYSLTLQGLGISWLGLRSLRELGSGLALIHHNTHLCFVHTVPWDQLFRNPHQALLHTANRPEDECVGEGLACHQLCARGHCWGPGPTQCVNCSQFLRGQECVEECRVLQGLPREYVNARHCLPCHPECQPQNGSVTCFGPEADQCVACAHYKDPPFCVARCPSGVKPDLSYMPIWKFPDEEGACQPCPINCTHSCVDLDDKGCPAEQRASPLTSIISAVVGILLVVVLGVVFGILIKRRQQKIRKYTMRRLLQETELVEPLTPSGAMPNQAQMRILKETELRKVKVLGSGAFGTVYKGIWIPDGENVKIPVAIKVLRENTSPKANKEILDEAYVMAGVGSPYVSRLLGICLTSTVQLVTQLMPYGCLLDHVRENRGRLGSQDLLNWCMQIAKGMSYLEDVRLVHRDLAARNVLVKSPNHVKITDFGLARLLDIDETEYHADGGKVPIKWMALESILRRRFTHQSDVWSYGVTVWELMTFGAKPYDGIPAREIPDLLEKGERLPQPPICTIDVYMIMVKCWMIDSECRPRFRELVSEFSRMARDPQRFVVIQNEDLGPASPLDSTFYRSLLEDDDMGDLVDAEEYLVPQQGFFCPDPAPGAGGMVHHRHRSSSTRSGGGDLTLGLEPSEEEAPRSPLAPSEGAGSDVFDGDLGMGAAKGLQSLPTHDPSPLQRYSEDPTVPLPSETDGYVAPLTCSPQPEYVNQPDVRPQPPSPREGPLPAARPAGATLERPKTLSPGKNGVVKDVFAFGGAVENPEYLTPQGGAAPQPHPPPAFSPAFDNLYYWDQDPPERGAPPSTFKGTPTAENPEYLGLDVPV

SMILES	IC50 [nM]
C=CC(=O)Nc1cc2c(Nc3ccc(F)c(Cl)c3)ncnc2cc1OCc1cn(CCCO)nn1	67
C=CC(=O)Nc1cc2c(Nc3ccc(F)c(Cl)c3)ncnc2cc1OCc1cn(Cc2ccccc2F)nn1	78

tested on: NCI-H1975; test: Antiproliferative activity against human NCI-H1975 cells harboring EGFR T790M/L858R double mutant after 72 hrs by EZ-Cytox assay; format: functional, cell-based; settings: NCI-H1975, 72 h

SMILES	IC50 [nM]
CN(C)C/C=C/C(=O)Nc1cc2c(Nc3ccc(F)c(Cl)c3)ncnc2cc1O[C@H]1CCOC1 [AFATINIB]	131
C#CCOc1cc2ncnc(Nc3ccc(F)c(Cl)c3)c2cc1NC(=O)C=C	1590
C=CC(=O)Nc1cc2c(Nc3ccc(F)c(Cl)c3)ncnc2cc1OCc1cn(CCCO)nn1	1370
C=CC(=O)Nc1cc2c(Nc3ccc(F)c(Cl)c3)ncnc2cc1OCc1cn(Cc2ccccc2F)nn1	619

tested on: PC-9; test: Antiproliferative activity against human PC9 cells harboring EGFR exon-19 del mutant after 72 hrs by EZ-Cytox assay; format: functional, cell-based; settings: PC-9, 72 h

SMILES	IC50 [nM]
CN(C)C/C=C/C(=O)Nc1cc2c(Nc3ccc(F)c(Cl)c3)ncnc2cc1O[C@H]1CCOC1 [AFATINIB]	0.1
C#CCOc1cc2ncnc(Nc3ccc(F)c(Cl)c3)c2cc1NC(=O)C=C	2.9
C=CC(=O)Nc1cc2c(Nc3ccc(F)c(Cl)c3)ncnc2cc1OCc1cn(CCCO)nn1	1.5
C=CC(=O)Nc1cc2c(Nc3ccc(F)c(Cl)c3)ncnc2cc1OCc1cn(Cc2ccccc2F)nn1	1.2

tested on: A549; test: Antiproliferative activity against human A549 cells harboring wild-type EGFR after 72 hrs by EZ-Cytox assay; format: ADME, cell-based; settings: A549, 72 h

SMILES	IC50 [µM]
CN(C)C/C=C/C(=O)Nc1cc2c(Nc3ccc(F)c(Cl)c3)ncnc2cc1O[C@H]1CCOC1 [AFATINIB]	3.77
C#CCOc1cc2ncnc(Nc3ccc(F)c(Cl)c3)c2cc1NC(=O)C=C	> 10

tested on: SK-BR-3; test: Antiproliferative activity against HER2-dependant human SKBR3 cells after 72 hrs by EZ-Cytox assay; format: ADME, cell-based; settings: SK-BR-3, 72 h

SMILES	IC50 [nM]
CN(C)C/C=C/C(=O)Nc1cc2c(Nc3ccc(F)c(Cl)c3)ncnc2cc1O[C@H]1CCOC1 [AFATINIB]	1.2
C#CCOc1cc2ncnc(Nc3ccc(F)c(Cl)c3)c2cc1NC(=O)C=C	106

target: T1, CYP1A2 (Homo sapiens, UniProt P05177); test: Inhibition of CYP1A2 in human liver microsomes assessed as residual activity at 10 uM using phenacetin as substrate preincubated for 5 mins followed by NADPH addition and measured after 15 mins by LC-MS/MS analysis relative to control; format: ADME; settings: probe phenacetin, read-out: Activity
T1 sequence (P05177 whole entry): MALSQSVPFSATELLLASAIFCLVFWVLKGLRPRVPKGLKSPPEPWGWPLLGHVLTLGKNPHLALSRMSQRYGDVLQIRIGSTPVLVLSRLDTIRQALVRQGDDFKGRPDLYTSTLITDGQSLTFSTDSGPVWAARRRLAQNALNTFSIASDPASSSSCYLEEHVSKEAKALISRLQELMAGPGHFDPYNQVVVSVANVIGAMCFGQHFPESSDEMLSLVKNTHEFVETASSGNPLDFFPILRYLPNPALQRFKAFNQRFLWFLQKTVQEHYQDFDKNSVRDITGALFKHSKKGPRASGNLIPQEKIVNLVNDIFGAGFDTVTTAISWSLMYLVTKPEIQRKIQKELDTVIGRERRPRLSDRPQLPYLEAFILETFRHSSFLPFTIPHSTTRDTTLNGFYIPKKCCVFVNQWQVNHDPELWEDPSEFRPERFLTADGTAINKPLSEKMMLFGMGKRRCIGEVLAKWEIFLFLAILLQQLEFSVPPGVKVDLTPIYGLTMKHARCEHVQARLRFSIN

SMILES	activity at 0.25 h, 10 µM [%]
CC(=O)N1CCN(c2ccc(OCC3COC(Cn4ccnc4)(c4ccc(Cl)cc4Cl)O3)cc2)CC1 (configuration not stated) [KETOCONAZOLE]	92.5

target: T2, CYP2A6 (Homo sapiens, UniProt P11509); test: Inhibition of CYP2A6 in human liver microsomes assessed as residual activity at 10 uM using coumarin as substrate preincubated for 5 mins followed by NADPH addition and measured after 15 mins by LC-MS/MS analysis relative to control; format: ADME; settings: probe coumarin, read-out: Activity
T2 sequence (P11509 whole entry): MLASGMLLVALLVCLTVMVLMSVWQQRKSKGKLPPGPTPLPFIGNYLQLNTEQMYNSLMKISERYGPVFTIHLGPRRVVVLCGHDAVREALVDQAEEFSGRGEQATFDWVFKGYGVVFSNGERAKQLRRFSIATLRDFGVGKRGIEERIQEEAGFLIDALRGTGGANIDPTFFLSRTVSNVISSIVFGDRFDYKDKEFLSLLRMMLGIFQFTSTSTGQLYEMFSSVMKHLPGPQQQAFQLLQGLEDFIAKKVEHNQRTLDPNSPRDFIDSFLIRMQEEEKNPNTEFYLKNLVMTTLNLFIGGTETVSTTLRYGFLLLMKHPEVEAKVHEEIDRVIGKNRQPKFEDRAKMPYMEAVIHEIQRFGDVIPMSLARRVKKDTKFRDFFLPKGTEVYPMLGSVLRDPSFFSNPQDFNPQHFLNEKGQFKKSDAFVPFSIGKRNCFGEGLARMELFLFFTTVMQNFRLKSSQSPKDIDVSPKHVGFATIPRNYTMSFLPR

SMILES	activity at 0.25 h, 10 µM [%]
CC(=O)N1CCN(c2ccc(OCC3COC(Cn4ccnc4)(c4ccc(Cl)cc4Cl)O3)cc2)CC1 (configuration not stated) [KETOCONAZOLE]	91.8

target: T3, CYP2B6 (Homo sapiens, UniProt P20813); test: Inhibition of CYP2B6 in human liver microsomes assessed as residual activity at 10 uM using bupropion as substrate preincubated for 5 mins followed by NADPH addition and measured after 15 mins by LC-MS/MS analysis relative to control; format: ADME; settings: probe bupropion, read-out: Activity
T3 sequence (P20813 whole entry): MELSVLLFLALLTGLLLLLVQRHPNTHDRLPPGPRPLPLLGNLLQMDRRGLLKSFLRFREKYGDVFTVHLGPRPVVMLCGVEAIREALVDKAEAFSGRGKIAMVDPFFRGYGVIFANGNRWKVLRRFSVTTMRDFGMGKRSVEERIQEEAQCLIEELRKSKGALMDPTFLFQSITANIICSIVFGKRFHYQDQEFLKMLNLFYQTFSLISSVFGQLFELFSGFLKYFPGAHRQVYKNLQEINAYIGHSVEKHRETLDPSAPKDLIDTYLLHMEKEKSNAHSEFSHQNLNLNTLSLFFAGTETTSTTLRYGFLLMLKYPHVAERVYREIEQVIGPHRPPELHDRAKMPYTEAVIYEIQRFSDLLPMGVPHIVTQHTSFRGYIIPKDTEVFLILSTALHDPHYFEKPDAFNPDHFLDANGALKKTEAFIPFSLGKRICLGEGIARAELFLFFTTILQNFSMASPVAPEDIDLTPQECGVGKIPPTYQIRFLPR

SMILES	activity at 0.25 h, 10 µM [%]
CC(=O)N1CCN(c2ccc(OCC3COC(Cn4ccnc4)(c4ccc(Cl)cc4Cl)O3)cc2)CC1 (configuration not stated) [KETOCONAZOLE]	84.1

target: T4, CYP2C8 (Homo sapiens, UniProt P10632); test: Inhibition of CYP2C8 in human liver microsomes assessed as residual activity at 10 uM using amiodiaquine as substrate preincubated for 5 mins followed by NADPH addition and measured after 15 mins by LC-MS/MS analysis relative to control; format: ADME; settings: probe amiodiaquine, read-out: Activity
T4 sequence (P10632 whole entry): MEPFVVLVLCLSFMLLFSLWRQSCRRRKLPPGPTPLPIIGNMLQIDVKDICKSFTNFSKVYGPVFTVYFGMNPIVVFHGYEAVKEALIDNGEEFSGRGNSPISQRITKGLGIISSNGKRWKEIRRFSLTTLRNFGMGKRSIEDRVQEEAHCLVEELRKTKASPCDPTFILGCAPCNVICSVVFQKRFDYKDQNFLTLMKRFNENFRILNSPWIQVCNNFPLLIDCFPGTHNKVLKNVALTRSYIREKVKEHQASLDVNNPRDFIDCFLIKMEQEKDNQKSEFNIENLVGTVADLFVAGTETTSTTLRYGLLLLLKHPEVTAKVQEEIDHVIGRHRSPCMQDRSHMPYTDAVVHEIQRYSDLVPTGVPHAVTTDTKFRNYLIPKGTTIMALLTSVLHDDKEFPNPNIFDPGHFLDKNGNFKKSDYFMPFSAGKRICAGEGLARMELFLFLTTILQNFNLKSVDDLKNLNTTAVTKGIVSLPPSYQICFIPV

SMILES	activity at 0.25 h, 10 µM [%]
CC(=O)N1CCN(c2ccc(OCC3COC(Cn4ccnc4)(c4ccc(Cl)cc4Cl)O3)cc2)CC1 (configuration not stated) [KETOCONAZOLE]	95.6

target: CYP2C9 (Homo sapiens, UniProt P11712); test: Inhibition of CYP2C9 in human liver microsomes assessed as residual activity at 10 uM using tolbutamide as substrate preincubated for 5 mins followed by NADPH addition and measured after 15 mins by LC-MS/MS analysis relative to control; format: ADME; settings: probe tolbutamide, read-out: Activity

SMILES	activity at 0.25 h, 10 µM [%]
CC(=O)N1CCN(c2ccc(OCC3COC(Cn4ccnc4)(c4ccc(Cl)cc4Cl)O3)cc2)CC1 (configuration not stated) [KETOCONAZOLE]	85

target: CYP2C19 (Homo sapiens, UniProt P33261); test: Inhibition of CYP2C19 in human liver microsomes assessed as residual activity at 10 uM using S-mephenytoin as substrate preincubated for 5 mins followed by NADPH addition and measured after 15 mins by LC-MS/MS analysis relative to control; format: ADME; settings: probe S-mephenytoin, read-out: Activity
Sequence (P33261 whole entry): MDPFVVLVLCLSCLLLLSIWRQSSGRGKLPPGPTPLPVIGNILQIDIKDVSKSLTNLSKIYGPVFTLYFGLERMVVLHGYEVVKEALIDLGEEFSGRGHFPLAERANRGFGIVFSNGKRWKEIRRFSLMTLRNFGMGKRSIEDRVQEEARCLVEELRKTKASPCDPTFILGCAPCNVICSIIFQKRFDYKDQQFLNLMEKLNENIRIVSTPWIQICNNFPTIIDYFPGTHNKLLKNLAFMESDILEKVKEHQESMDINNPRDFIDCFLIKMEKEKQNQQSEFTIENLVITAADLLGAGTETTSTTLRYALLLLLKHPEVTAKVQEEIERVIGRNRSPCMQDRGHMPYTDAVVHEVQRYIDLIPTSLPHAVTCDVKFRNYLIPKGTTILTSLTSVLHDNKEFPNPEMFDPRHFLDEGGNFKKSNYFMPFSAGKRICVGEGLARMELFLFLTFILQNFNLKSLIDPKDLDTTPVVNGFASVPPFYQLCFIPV

SMILES	activity at 0.25 h, 10 µM [%]
CC(=O)N1CCN(c2ccc(OCC3COC(Cn4ccnc4)(c4ccc(Cl)cc4Cl)O3)cc2)CC1 (configuration not stated) [KETOCONAZOLE]	85.8

target: CYP2E1 (Homo sapiens, UniProt P05181); test: Inhibition of CYP2E1 in human liver microsomes assessed as residual activity at 10 uM using chlorzoxazone as substrate preincubated for 5 mins followed by NADPH addition and measured after 15 mins by LC-MS/MS analysis relative to control; format: ADME; settings: probe chlorzoxazone, read-out: Activity

SMILES	activity at 0.25 h, 10 µM [%]
CC(=O)N1CCN(c2ccc(OCC3COC(Cn4ccnc4)(c4ccc(Cl)cc4Cl)O3)cc2)CC1 (configuration not stated) [KETOCONAZOLE]	98.1

target: CYP3A4 (Homo sapiens, UniProt P08684); test: Inhibition of CYP3A4 in human liver microsomes assessed as residual activity at 10 uM using midazolam as substrate preincubated for 5 mins followed by NADPH addition and measured after 15 mins by LC-MS/MS analysis relative to control; format: ADME; settings: probe midazolam, read-out: Activity
Sequence (P08684 whole entry): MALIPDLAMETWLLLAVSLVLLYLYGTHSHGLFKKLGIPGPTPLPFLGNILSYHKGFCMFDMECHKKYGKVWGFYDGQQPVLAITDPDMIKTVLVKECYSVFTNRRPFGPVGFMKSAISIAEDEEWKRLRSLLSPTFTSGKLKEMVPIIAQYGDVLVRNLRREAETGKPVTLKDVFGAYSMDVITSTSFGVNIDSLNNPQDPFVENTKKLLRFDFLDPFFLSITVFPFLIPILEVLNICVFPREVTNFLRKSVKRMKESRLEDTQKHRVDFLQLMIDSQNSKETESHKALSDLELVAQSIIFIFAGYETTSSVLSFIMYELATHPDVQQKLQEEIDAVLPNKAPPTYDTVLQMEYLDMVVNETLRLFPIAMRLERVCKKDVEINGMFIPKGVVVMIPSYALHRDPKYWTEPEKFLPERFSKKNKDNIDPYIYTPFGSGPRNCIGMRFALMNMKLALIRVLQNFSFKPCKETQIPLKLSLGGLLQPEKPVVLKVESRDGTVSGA

SMILES	activity at 0.25 h, 10 µM [%]
CC(=O)N1CCN(c2ccc(OCC3COC(Cn4ccnc4)(c4ccc(Cl)cc4Cl)O3)cc2)CC1 (configuration not stated) [KETOCONAZOLE]	35.7

tested on: HepG2; test: Cytotoxicity against human HepG2 cells after 24 hrs by LDH release assay; format: cell-based; settings: HepG2, 24 h

SMILES	IC50 [µM]
COC(=O)C1=C(C)NC(C)=C(C(=O)OC)C1c1ccccc1[N+](=O)[O-] [NIFEDIPINE]	9.4
